Measurements published in PubChem BioAssay (NCI).
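Following 48 hours of exposure in 96-well plates, responses at five concentrations were used to interpolate endpoints linearly. The concentration for full growth arrest is given as TGI.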

Key:
Test in all cases: NCI anticancer screen, dose series, 48 h
[1] = test system: 786-0 renal
[2] = test system: A549 NSCLC
[3] = test system: ACHN renal
[4] = test system: BT-549 breast
[5] = test system: CAKI-1 renal
[6] = test system: CCRF-CEM leukemia
[7] = test system: COLO 205 colon
[8] = test system: DU-145 prostate
[9] = test system: HCC-2998 colon
[10] = test system: HCT-116 colon
[11] = test system: HCT-15 colon
[12] = test system: HL-60(TB) leukemia
[13] = test system: HOP-62 NSCLC
[14] = test system: HOP-92 NSCLC
[15] = test system: HS 578T breast
[16] = test system: HT29 colon
[17] = test system: IGROV1 ovarian
[18] = test system: K-562 leukemia
[19] = test system: KM12 colon
[20] = test system: LOX IMVI melanoma
[21] = test system: M14 melanoma
[22] = test system: MALME-3M melanoma
[23] = test system: MDA-MB-231 breast
[24] = test system: MDA-MB-435
[25] = test system: MDA-N
[26] = test system: MOLT-4 leukemia
[27] = test system: NCI-H23 lung
[28] = test system: NCI-H460 lung
[29] = test system: NCI/ADR-RES ovarian
[30] = test system: OVCAR-3 ovarian
[31] = test system: OVCAR-4 ovarian
[32] = test system: OVCAR-5 ovarian
[33] = test system: OVCAR-8 ovarian
[34] = test system: PC-3 prostate
[35] = test system: RPMI-8226 leukemia
[36] = test system: SF-295 CNS
[37] = test system: SF-539 CNS
[38] = test system: SK-MEL-2 melanoma
[39] = test system: SK-MEL-28 melanoma
[40] = test system: SK-OV-3 ovarian
[41] = test system: SN12C renal
[42] = test system: SNB-75 CNS
[43] = test system: SR leukemia
[44] = test system: SW-620 colon
[45] = test system: TK-10 renal
[46] = test system: U251 CNS
[47] = test system: UACC-257 melanoma
[48] = test system: UACC-62 melanoma
[49] = test system: UO-31 renal
[50] = test system: A498 renal
[51] = test system: EKVX NSCLC
[52] = test system: MCF7 breast
[53] = test system: NCI-H226 lung
[54] = test system: NCI-H522 lung
[55] = test system: RXF 393 renal
[56] = test system: SF-268 CNS
[57] = test system: SK-MEL-5 melanoma
[58] = test system: SNB-19 CNS
[59] = test system: T-47D breast

Work on `c1ccc(CN2CCC3(CC2)SSC2(CCN(Cc4ccccc4)CC2)S3)cc1` yielded a TGI [1] of over 100 µM, a TGI [2] of over 100 µM and a TGI [3] of over 100 µM. It also gave a TGI [4] of over 100 µM, a TGI [5] of 85.5 µM and a TGI [6] of over 100 µM. The TGI [7] was 33.3 µM, the TGI [8] was over 100 µM and the TGI [9] was 93.6 µM. The TGI [10] was over 100 µM, the TGI [11] was over 100 µM and the TGI [12] was over 100 µM. The TGI [13] was over 100 µM, the TGI [14] was over 100 µM and the TGI [15] was over 100 µM. It also gave a TGI [16] of 43.5 µM, a TGI [17] of over 100 µM and a TGI [18] of over 100 µM. It also gave a TGI [19] of over 100 µM, a TGI [20] of over 100 µM and a TGI [21] of over 100 µM. The TGI [22] was over 100 µM, the TGI [23] was over 100 µM and the TGI [24] was over 100 µM. The TGI [25] was over 100 µM, the TGI [26] was over 100 µM and the TGI [27] was over 100 µM. It also gave a TGI [28] of 84.6 µM, a TGI [29] of over 100 µM and a TGI [30] of over 100 µM. It also gave a TGI [31] of over 100 µM, a TGI [32] of over 100 µM and a TGI [33] of over 100 µM. The TGI [34] was over 100 µM, the TGI [35] was 98.4 µM and the TGI [36] was 83.9 µM. For the same molecule, the TGI [37] was over 100 µM, the TGI [38] was over 100 µM and the TGI [39] was over 100 µM. It also gave a TGI [40] of over 100 µM, a TGI [41] of over 100 µM and a TGI [42] of over 100 µM. The TGI [43] was over 100 µM, the TGI [44] was over 100 µM and the TGI [45] was over 100 µM. For the same molecule, the TGI [46] was over 100 µM, the TGI [47] was over 100 µM and the TGI [48] was over 100 µM. The TGI [49] was over 100 µM.
`CCCCc1ccc(Nc2nc(SC)c3[nH]cnc3n2)cc1` gave a TGI [1] of over 100 µM, a TGI [50] of over 78.5 µM and a TGI [2] of over 100 µM. It also gave a TGI [3] of over 100 µM, a TGI [4] of over 100 µM and a TGI [5] of over 100 µM. The TGI [6] was 12.3 µM, the TGI [7] was over 100 µM and the TGI [8] was over 100 µM. For the same molecule, the TGI [51] was over 100 µM, the TGI [9] was over 100 µM and the TGI [10] was over 100 µM. The TGI [11] was over 100 µM, the TGI [12] was over 46.4 µM and the TGI [13] was 57.7 µM. It also gave a TGI [14] of over 100 µM, a TGI [15] of over 100 µM and a TGI [16] of over 100 µM. For the same molecule, the TGI [17] was over 100 µM, the TGI [18] was over 31.3 µM and the TGI [19] was over 100 µM. The TGI [20] was over 100 µM, the TGI [21] was over 100 µM and the TGI [22] was over 100 µM. It also gave a TGI [52] of over 100 µM, a TGI [23] of over 100 µM and a TGI [24] of over 100 µM. For the same molecule, the TGI [26] was over 100 µM, the TGI [53] was over 100 µM and the TGI [27] was over 100 µM. For the same molecule, the TGI [28] was over 100 µM, the TGI [54] was over 100 µM and the TGI [29] was over 100 µM. The TGI [30] was over 93.5 µM, the TGI [31] was over 100 µM and the TGI [32] was over 100 µM. It also gave a TGI [33] of over 100 µM, a TGI [34] of over 100 µM and a TGI [35] of over 100 µM. The TGI [55] was over 100 µM, the TGI [56] was over 100 µM and the TGI [36] was over 100 µM. It also gave a TGI [37] of over 100 µM, a TGI [38] of over 100 µM and a TGI [39] of over 100 µM. The TGI [57] was over 100 µM, the TGI [40] was over 100 µM and the TGI [41] was over 100 µM. The TGI [58] was over 100 µM, the TGI [42] was over 100 µM and the TGI [43] was 9.69 µM. For the same molecule, the TGI [44] was over 100 µM, the TGI [59] was over 100 µM and the TGI [45] was over 100 µM. For the same molecule, the TGI [46] was over 100 µM, the TGI [47] was over 100 µM and the TGI [48] was over 100 µM. It also gave a TGI [49] of over 100 µM.
